# Where “and” joins values, the source holds several entries; their conditions need not be identical. Identical values can stand only once.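 96-well plates; 48 h exposure; 5 concentrations. Endpoints by linear interpolation between flanking doses. Not reached: highest tested concentration assigned. GI50 is the concentration that inhibits growth by half.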 Calls of active or inactive are those of the source. Cut-off read from the data, not from the text of the source: active = GI50 up to about 1.1 µM and inactive = higher.
# Legend:
# Assay in all cases: growth of human tumour cells (NCI), 48 h
# PC-3 = system: PC-3
# UO-31 = system: UO-31
# NCI/ADR-RES = system: NCI/ADR-RES
# SW-620 = system: SW-620
# MCF7 = system: MCF7
# MDA-MB-435 = system: MDA-MB-435
# MDA-MB-231 = system: MDA-MB-231
# A549 = system: A549
# SF-268 = system: SF-268
# SF-295 = system: SF-295
# HT-29 = system: HT-29
# NCI-H522 = system: NCI-H522
# BT-549 = system: BT-549
# LOX IMVI = system: LOX IMVI
# 786-0 = system: 786-0
# OVCAR-8 = system: OVCAR-8
# IGROV-1 = system: IGROV-1
# T47D = system: T47D
# SK-MEL-28 = system: SK-MEL-28
# OVCAR-3 = system: OVCAR-3
# EKVX = system: EKVX
# RPMI-8226 = system: RPMI-8226
# CAKI-1 = system: CAKI-1
# NCI-H23 = system: NCI-H23
# SNB-75 = system: SNB-75
# RXF 393 = system: RXF 393
# SF-539 = system: SF-539
# U-251 = system: U-251
# SK-MEL-2 = system: SK-MEL-2
# SNB-19 = system: SNB-19
# A498 = system: A498
# SK-OV-3 = system: SK-OV-3
# NCI-H460 = system: NCI-H460
# M14 = system: M14
# COLO 205 = system: COLO 205
# OVCAR-4 = system: OVCAR-4
# HOP-62 = system: HOP-62
# UACC-257 = system: UACC-257
# CCRF-CEM = system: CCRF-CEM
# HCT-15 = system: HCT-15
# ACHN = system: ACHN
# NCI-H226 = system: NCI-H226
# MOLT-4 = system: MOLT-4
# Hs-578T = system: Hs-578T
# SN12C = system: SN12C
# KM12 = system: KM12
# SK-MEL-5 = system: SK-MEL-5
# TK-10 = system: TK-10
# K562 = system: K562
# OVCAR-5 = system: OVCAR-5
# UACC-62 = system: UACC-62
# HCT-116 = system: HCT-116
# HCC 2998 = system: HCC 2998
# HOP-92 = system: HOP-92
# HL-60 = system: HL-60
# Malme-3M = system: Malme-3M
# SR = system: SR
# DU-145 = system: DU-145
smiles,measurement,setting,value
CC(C)(C)OC(=O)NC(C)(C)C(=O)NCCC(=O)O,GI50,PC-3,> 100 µM (inactive)
same,GI50,UO-31,> 100 µM (inactive)
same,GI50,NCI/ADR-RES,> 100 µM (inactive)
same,GI50,SW-620,> 100 µM (inactive)
same,GI50,MCF7,> 100 µM (inactive)
same,GI50,MDA-MB-435,> 100 µM (inactive)
same,GI50,MDA-MB-231,> 100 µM (inactive)
same,GI50,A549,> 100 µM (inactive)
same,GI50,SF-268,> 100 µM (inactive)
same,GI50,SF-295,> 100 µM (inactive)
same,GI50,HT-29,> 100 µM (inactive)
same,GI50,NCI-H522,> 100 µM (inactive)
same,GI50,BT-549,> 100 µM (inactive)
same,GI50,LOX IMVI,> 100 µM (inactive)
same,GI50,786-0,> 100 µM (inactive)
same,GI50,OVCAR-8,> 100 µM (inactive)
same,GI50,IGROV-1,> 100 µM (inactive)
same,GI50,T47D,> 100 µM (inactive)
same,GI50,SK-MEL-28,> 100 µM (inactive)
same,GI50,OVCAR-3,> 100 µM (inactive)
same,GI50,EKVX,> 100 µM (inactive)
same,GI50,RPMI-8226,> 100 µM (inactive)
same,GI50,CAKI-1,> 100 µM (inactive)
same,GI50,NCI-H23,> 100 µM (inactive)
same,GI50,SNB-75,> 100 µM (inactive)
same,GI50,RXF 393,> 100 µM (inactive)
same,GI50,SF-539,> 100 µM (inactive)
same,GI50,U-251,> 100 µM (inactive)
same,GI50,SK-MEL-2,> 100 µM (inactive)
same,GI50,SNB-19,> 100 µM (inactive)
same,GI50,A498,> 100 µM (inactive)
same,GI50,SK-OV-3,74.6 µM (inactive)
same,GI50,NCI-H460,> 100 µM (inactive)
same,GI50,M14,> 100 µM (inactive)
same,GI50,COLO 205,> 100 µM (inactive)
same,GI50,OVCAR-4,> 100 µM (inactive)
same,GI50,HOP-62,> 100 µM (inactive)
same,GI50,UACC-257,> 100 µM (inactive)
same,GI50,CCRF-CEM,> 100 µM (inactive)
same,GI50,HCT-15,> 100 µM
same,GI50,ACHN,> 100 µM (inactive)
same,GI50,NCI-H226,> 100 µM (inactive)
same,GI50,MOLT-4,> 100 µM (inactive)
same,GI50,Hs-578T,> 100 µM (inactive)
same,GI50,SN12C,> 100 µM (inactive)
same,GI50,KM12,> 100 µM (inactive)
same,GI50,SK-MEL-5,> 100 µM (inactive)
same,GI50,TK-10,> 100 µM (inactive)
same,GI50,K562,> 100 µM (inactive)
same,GI50,OVCAR-5,> 100 µM (inactive)
same,GI50,UACC-62,> 100 µM (inactive)
CCCC[C@@H]1CCN2C[C@@H](O)[C@@H](O)[C@H]2[C@@H]1O,GI50,PC-3,> 100 µM (inactive)
same,GI50,UO-31,> 100 µM (inactive)
same,GI50,NCI/ADR-RES,> 100 µM (inactive)
same,GI50,SW-620,> 100 µM (inactive)
same,GI50,MCF7,> 100 µM (inactive)
same,GI50,MDA-MB-435,> 100 µM (inactive)
same,GI50,MDA-MB-231,> 100 µM (inactive)
same,GI50,HCT-116,> 100 µM (inactive)
same,GI50,A549,> 100 µM (inactive)
same,GI50,SF-268,> 100 µM (inactive)
same,GI50,SF-295,> 100 µM (inactive)
same,GI50,HT-29,> 100 µM (inactive)
same,GI50,NCI-H522,> 100 µM (inactive)
same,GI50,BT-549,> 100 µM (inactive)
same,GI50,LOX IMVI,> 100 µM (inactive)
same,GI50,786-0,> 100 µM (inactive)
same,GI50,OVCAR-8,> 100 µM (inactive)
same,GI50,IGROV-1,> 100 µM (inactive)
same,GI50,SK-MEL-28,> 100 µM (inactive)
same,GI50,OVCAR-3,> 100 µM (inactive)
same,GI50,EKVX,> 100 µM (inactive)
same,GI50,RPMI-8226,> 100 µM (inactive)
same,GI50,CAKI-1,> 100 µM (inactive)
same,GI50,NCI-H23,> 100 µM (inactive)
same,GI50,SNB-75,> 100 µM (inactive)
same,GI50,SF-539,> 100 µM (inactive)
same,GI50,U-251,> 100 µM (inactive)
same,GI50,SK-MEL-2,> 100 µM (inactive)
same,GI50,SNB-19,> 100 µM (inactive)
same,GI50,A498,> 100 µM (inactive)
same,GI50,HCC 2998,> 100 µM (inactive)
same,GI50,SK-OV-3,> 100 µM (inactive)
same,GI50,NCI-H460,> 100 µM (inactive)
same,GI50,M14,> 100 µM (inactive)
same,GI50,COLO 205,> 100 µM (inactive)
same,GI50,OVCAR-4,> 100 µM (inactive)
same,GI50,HOP-92,> 100 µM (inactive)
same,GI50,UACC-257,> 100 µM (inactive)
same,GI50,CCRF-CEM,> 100 µM (inactive)
same,GI50,HCT-15,> 100 µM
same,GI50,ACHN,> 100 µM (inactive)
same,GI50,NCI-H226,> 100 µM (inactive)
same,GI50,MOLT-4,> 100 µM (inactive)
same,GI50,Hs-578T,> 100 µM (inactive)
same,GI50,HL-60,> 100 µM (inactive)
same,GI50,KM12,> 100 µM (inactive)
same,GI50,SK-MEL-5,> 100 µM (inactive)
same,GI50,TK-10,> 100 µM (inactive)
same,GI50,K562,> 100 µM (inactive)
same,GI50,OVCAR-5,> 100 µM (inactive)
same,GI50,UACC-62,> 100 µM (inactive)
same,GI50,Malme-3M,> 100 µM (inactive)
c1ccc(P(CCP(CCP(c2ccccc2)c2ccccc2)c2ccccc2)CCP(c2ccccc2)c2ccccc2)cc1 (configuration not stated),GI50,UO-31,> 10 µM (inactive) and > 6.82 µM (inactive)
same,GI50,NCI/ADR-RES,> 10 µM (inactive) and > 5.58 µM (inactive)
same,GI50,SW-620,5.05 µM (inactive)
same,GI50,MCF7,1.67 µM (inactive)
same,GI50,NCI-H522,2.69 µM (inactive)
same,GI50,BT-549,> 10 µM (inactive)
same,GI50,LOX IMVI,1.51 µM (inactive)
same,GI50,786-0,1.82 µM (inactive)
same,GI50,T47D,2.12 µM (inactive)
same,GI50,SR,1.1 µM (active)
same,GI50,RPMI-8226,1.68 µM (inactive)
same,GI50,NCI-H23,> 5.38 µM (inactive)
same,GI50,RXF 393,> 5.6 µM (inactive)
same,GI50,SF-539,> 6.25 µM (inactive)
same,GI50,SK-MEL-2,9.44 µM (inactive)
same,GI50,A498,> 10 µM (inactive) and > 8.65 µM (inactive)
same,GI50,HCC 2998,2.06 µM (inactive)
same,GI50,SK-OV-3,> 10 µM (inactive)
same,GI50,NCI-H460,1.72 µM (inactive)
same,GI50,OVCAR-4,7.33 µM (inactive)
same,GI50,HOP-62,> 10 µM (inactive)
same,GI50,UACC-257,> 10 µM (inactive)
same,GI50,CCRF-CEM,1.23 µM (inactive)
same,GI50,HCT-15,9.77 µM
same,GI50,NCI-H226,> 5.22 µM (inactive)
same,GI50,MOLT-4,1.41 µM (inactive)
same,GI50,Hs-578T,3.85 µM (inactive)
same,GI50,HL-60,0.63 µM (active)
same,GI50,TK-10,> 10 µM (inactive)
same,GI50,K562,1.28 µM (inactive)
same,GI50,OVCAR-5,> 5.45 µM (inactive)
same,GI50,UACC-62,6.55 µM (inactive)
same,GI50,Malme-3M,> 10 µM (inactive)
same,GI50,DU-145,> 9.16 µM (inactive)

# Reference: ChEMBL document CHEMBL1201862, “PubChem BioAssay data set” (2004)
